Results from patent US9981988B2, “Polymorphic forms and co-crystals of a c-Met inhibitor” (AMGEN, INC., priority 2014, dated 2018).

Experiment: Solid state stability under accelerated stability testing conditions, HPLC
Format: physicochemical
Protocol: High performance liquid chromatography (HPLC) analyses were performed on an Agilent 1100 or 1200 series HPLC equipped with a binary pump, diode-array detector, thermostated column compartment, and auto sampler. Separation and elution was achieved using a reverse-phase column and 0.1% triflouroacetic acid/water/acetonitrile mobile phase.
Solid samples of the free base monohydrate form of Compound M were placed under accelerated stability testing conditions (25° C./60% RH, 40° C./75% RH and 60° C./ambient RH) for 12 weeks.

## COCCOc1cnc2ccn([C@H](C)c3nnc4c(F)cc(-c5cnn(C)c5)cn34)c(=O)c2c1 [free base monohydrate form of Compound M, 6-{(1R)-1-[8-fluoro-6-(1-methyl-1H-pyrazol-4-yl)[1,2,4]triazolo[4,3-a]pyridin-3-yl]ethyl}-3-(2-methoxyethoxy)-1,6-naphthyridin-5(6H)-one]
Week 2, 25/60
  Area % (215 nm), peak 3, RRT 1.25: 0.28 Area %
  Area % (215 nm), peak 4, RRT 1.53: 0.28 Area %
  Area % (215 nm), peak monohydrate, RRT 1.00: 99.18 Area %
  Total Impurities, Area % (215 nm): 0.82 Area %
Week 2, 40/75
  Area % (215 nm), peak 2, RRT 1.09: 0.31 Area %
  Area % (215 nm), peak 3, RRT 1.25: 0.35 Area %
  Area % (215 nm), peak 4, RRT 1.53: <0.1 Area %
  Area % (215 nm), peak monohydrate, RRT 1.00: 99.35 Area %
  Total Impurities, Area % (215 nm): 0.65 Area %
Week 2, 60 C.
  Area % (215 nm), peak 2, RRT 1.09: 0.25 Area %
  Area % (215 nm), peak 3, RRT 1.25: 0.27 Area %
  Area % (215 nm), peak 4, RRT 1.53: 0.27 Area %
  Area % (215 nm), peak monohydrate, RRT 1.00: 99.21 Area %
  Total Impurities, Area % (215 nm): 0.79 Area %
Week 4, 25/60
  Area % (215 nm), peak 2, RRT 1.09: <0.1 Area %
  Area % (215 nm), peak 3, RRT 1.25: <0.1 Area %
  Area % (215 nm), peak 4, RRT 1.53: <0.1 Area %
  Area % (215 nm), peak monohydrate, RRT 1.00: 99.90 Area %
  Total Impurities, Area % (215 nm): 0.01 Area %
Week 4, 40/75
  Area % (215 nm), peak 2, RRT 1.09: <0.1 Area %
  Area % (215 nm), peak 3, RRT 1.25: <0.1 Area %
  Area % (215 nm), peak 4, RRT 1.53: <0.1 Area %
  Area % (215 nm), peak monohydrate, RRT 1.00: 99.86 Area %
  Total Impurities, Area % (215 nm): 0.14 Area %
Week 4, 60 C.
  Area % (215 nm), peak 2, RRT 1.09: <0.1 Area %
  Area % (215 nm), peak 3, RRT 1.25: <0.1 Area %
  Area % (215 nm), peak 4, RRT 1.53: <0.1 Area %
  Area % (215 nm), peak monohydrate, RRT 1.00: 99.90 Area %
  Total Impurities, Area % (215 nm): <0.1 Area %
Week 8, 25/60
  Area % (215 nm), peak 2, RRT 1.09: <0.1 Area %
  Area % (215 nm), peak 3, RRT 1.25: <0.1 Area %
  Area % (215 nm), peak 4, RRT 1.53: <0.1 Area %
  Area % (215 nm), peak monohydrate, RRT 1.00: 99.97 Area %
  Total Impurities, Area % (215 nm): <0.1 Area %
Week 8, 40/75
  Area % (215 nm), peak 2, RRT 1.09: <0.1 Area %
  Area % (215 nm), peak 3, RRT 1.25: <0.1 Area %
  Area % (215 nm), peak 4, RRT 1.53: <0.1 Area %
  Area % (215 nm), peak monohydrate, RRT 1.00: 99.92 Area %
  Total Impurities, Area % (215 nm): <0.1 Area %
Week 8, 60 C.
  Area % (215 nm), peak 2, RRT 1.09: <0.1 Area %
  Area % (215 nm), peak 3, RRT 1.25: <0.1 Area %
  Area % (215 nm), peak 4, RRT 1.53: <0.1 Area %
  Area % (215 nm), peak monohydrate, RRT 1.00: 99.97 Area %
  Total Impurities, Area % (215 nm): <0.1 Area %
Week 12, 25/60
  Area % (215 nm), peak 2, RRT 1.09: <0.1 Area %
  Area % (215 nm), peak 3, RRT 1.25: <0.1 Area %
  Area % (215 nm), peak 4, RRT 1.53: <0.1 Area %
  Area % (215 nm), peak monohydrate, RRT 1.00: 100.0 Area %
  Total Impurities, Area % (215 nm): <0.1 Area %
Week 12, 40/75
  Area % (215 nm), peak 2, RRT 1.09: <0.1 Area %
  Area % (215 nm), peak 3, RRT 1.25: <0.1 Area %
  Area % (215 nm), peak 4, RRT 1.53: <0.1 Area %
  Area % (215 nm), peak monohydrate, RRT 1.00: 100.0 Area %
  Total Impurities, Area % (215 nm): <0.1 Area %
Week 12, −20 C.
  Area % (215 nm), peak 2, RRT 1.09: <0.1 Area %
  Area % (215 nm), peak 3, RRT 1.25: <0.1 Area %
  Area % (215 nm), peak 4, RRT 1.53: <0.1 Area %
  Area % (215 nm), peak monohydrate, RRT 1.00: 100.0 Area %
  Total Impurities, Area % (215 nm): <0.1 Area %
Over 12 weeks at 25° C. and 60% relative humidity or at 40° C. and 75% relative humidity
  physical form: remains in substantially the same physical form
